Measurements taken from US11000033B2, “Ketone or oxime compound, and herbicide” (NISSAN CHEMICAL CORPORATION, priority 2014, dated 2021).

Legend:
Type in all cases: in vivo
Avena fatua [1] = assay: Test Example 5: herbicidal effect by foliage application, plastic box (symbol I); conditions: 320 g/ha, 3 weeks after application
In short: (§1)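 Seeds were sown in sterilized diluvial soil, covered with about 1.5 cm of soil and grown 14 days in a greenhouse at 25° C. to 30° C. An emulsifiable formulation diluted in water to a set rate was sprayed over foliage, and injury was scored 3 weeks later.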

Digitaria ciliaris = assay: Test Example 4: herbicidal effect by soil treatment (symbol F); conditions: for F (Digitaria ciliaris) herbicidal effect grade: application herbicide amount 320 g/ha
In short: (§2)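 Seeds were sown in sterilized diluvial soil, covered with about 1.5 cm of soil, and the soil surface was sprayed with a water-diluted emulsion of the compound at a predetermined rate. Plants grew in a greenhouse at 25° C. to 30° C.; effects were scored visually 3 weeks after application.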

Lolium multiflorum Lam. = assay: Test Example 5: herbicidal effect by foliage application, plastic box (symbol K); conditions: 320 g/ha, 3 weeks after application
In short: as §1

Scirpus juncoides = assay: Test Example 2: herbicidal activity, application during weed generation in submerged conditions (symbol B); conditions: Table 23; application herbicide amount 320 g/ha; grade 0-5 by criteria of Test Example 1
In short: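 Submerged alluvial soil (4 cm) sown with mixed seed; greenhouse 25–30° C. 1–2 leaf: diluted emulsion onto water surface, preset dose. Visual score, 3 wk.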

Abutilon theophrasti [2] = assay: Test Example 5: herbicidal effect by foliage application, plastic box (symbol M); conditions: 320 g/ha, 3 weeks after application
In short: as §1

Avena fatua [3] = assay: Test Example 4: herbicidal effect by soil treatment (symbol I); conditions: for I (Avena fatua) herbicidal effect grade: application herbicide amount 320 g/ha
In short: as §2

Abutilon theophrasti [4] = assay: Test Example 4: herbicidal effect by soil treatment (symbol M); conditions: for M (Abutilon theophrasti) herbicidal effect grade: application herbicide amount 320 g/ha
In short: as §2

Leptochloa chinensis = assay: Test Example 3: herbicidal effect by foliage application, Wagner pot (symbol D); conditions: application herbicide amount 320 g/ha
In short: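 Steps: fill pot with alluvial soil; add water to 0.1–0.5 cm depth; sow weed and rice seed; grow 14 days at 25–30 °C; spray diluted emulsion over the leaves; rate effect after 3 weeks.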

wheat = assay: Test Example 5: effect on crop by foliage application, plastic box (symbol e); conditions: 320 g/ha, 3 weeks after application
In short: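 In a plastic box 7 cm deep filled with sterilized diluvial soil, seeds of crops and weeds such as Digitaria ciliaris, Avena fatua and Amaranthus retroflexus are sown in spots and covered with about 1.5 cm of soil before greenhouse growth at 25–30° C.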

Stellaria media = assay: Test Example 4: herbicidal effect by soil treatment (symbol P); conditions: for P (Stellaria media) herbicidal effect grade: application herbicide amount 320 g/ha
In short: as §2

[5] = system: directly sowed rice plant; assay: Test Example 3: effect on crop by foliage application, Wagner pot (symbol b); conditions: application herbicide amount 320 g/ha
In short: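 Alluvial soil in a 1/10000-are Wagner pot was flooded to a water depth of 0.1–0.5 cm. Echinochloa crus-galli var. crus-galli, Leptochloa chinensis, Cyperus difformis and rice were sown into it and grown in a greenhouse at 25–30 °C.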

beet = assay: Test Example 4: effect on crop by soil treatment (symbol f); conditions: for f (beet) effect on crop grade: application herbicide amount 320 g/ha
In short: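 Grown at 25° C. to 30° C. in a greenhouse, the crops came from seed sown spot-wise in sterilized diluvial soil under roughly 1.5 cm of covering soil.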

corn = assay: Test Example 4: effect on crop by soil treatment (symbol c); conditions: for c (corn) effect on crop grade: application herbicide amount 320 g/ha
In short: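 Seeds were sown in spots on sterilized diluvial soil in a plastic box and covered with about 1.5 cm of soil. Plants were then grown in a greenhouse at 25° C. to 30° C.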

Row | Compound | I: Avena fatua, herbicidal effect (criteria 0-5) (Avena fatua [1]) | F (Digitaria ciliaris) herbicidal effect grade (Digitaria ciliaris) | K: Lolium multiflorum Lam., herbicidal effect (criteria 0-5) (Lolium multiflorum Lam.) | Herbicidal effect grade, B: Scirpus juncoides (Scirpus juncoides) | M: Abutilon theophrasti, herbicidal effect (criteria 0-5) (Abutilon theophrasti [2]) | I (Avena fatua) herbicidal effect grade (Avena fatua [3]) | M (Abutilon theophrasti) herbicidal effect grade (Abutilon theophrasti [4]) | herbicidal effect on D (Leptochloa chinensis), grade 0-5 (Leptochloa chinensis) | e: wheat, effect on crop (criteria 0-5) (wheat) | P (Stellaria media) herbicidal effect grade (Stellaria media) | effect on crop b (directly sowed rice plant), grade 0-5 [5] | f (beet) effect on crop grade (beet) | c (corn) effect on crop grade (corn) | further results
1 | CON=C(C)CC1CC(OC(=O)COc2cccc(C#N)c2)=C(c2c(C)cc(C)cc2C)C1=O (stereo not drawn) [1-074] | 5 (Herbicidal ratio of 90% or more (almost completely withered)) | 5 (Herbicidal ratio of 90% or more (almost completely withered)) | 5 (Herbicidal ratio of 90% or more (almost completely withered)) | 4 (Herbicidal ratio of 70% or higher and lower than 90%) | 3 (Herbicidal ratio of 40% or higher and lower than 70%) | 4 (Herbicidal ratio of 70% or higher and lower than 90%) | 5 (Herbicidal ratio of 90% or more (almost completely withered)) | 5 (Herbicidal ratio of 90% or more (almost completely withered)) | 5 (Herbicidal ratio of 90% or more (almost completely withered)) | 0 (Herbicidal ratio of 5% or lower (almost no effect)) | 5 (Herbicidal ratio of 90% or more (almost completely withered)) | 0 (Herbicidal ratio of 5% or lower (almost no effect)) | 4 (Herbicidal ratio of 70% or higher and lower than 90%) | –
2 | CCCC=CC(=O)OC1=C(c2c(C)cc(C)cc2C)C(=O)C(CC(C)=NOC)C1 (stereo not drawn) [1-090] | 5 (Herbicidal ratio of 90% or more (almost completely withered)) | – | 5 (Herbicidal ratio of 90% or more (almost completely withered)) | 5 (Herbicidal ratio of 90% or more (almost completely withered)) | 4 (Herbicidal ratio of 70% or higher and lower than 90%) | – | – | 5 (Herbicidal ratio of 90% or more (almost completely withered)) | 5 (Herbicidal ratio of 90% or more (almost completely withered)) | – | 5 (Herbicidal ratio of 90% or more (almost completely withered)) | – | – | F: Digitaria ciliaris, herbicidal effect grade (Digitaria ciliaris; 320 g/ha): 5 (Herbicidal ratio of 90% or more (almost completely withered)); I: Avena fatua, herbicidal effect grade (Avena fatua [3]; 320 g/ha): 3 (Herbicidal ratio of 40% or higher and lower than 70%); M: Abutilon theophrasti, herbicidal effect grade (Abutilon theophrasti [4]; 320 g/ha): 4 (Herbicidal ratio of 70% or higher and lower than 90%); P: Stellaria media, herbicidal effect grade (Stellaria media; 320 g/ha): 0 (Herbicidal ratio of 5% or lower (almost no effect)); f: beet, effect grade on crop (beet; 320 g/ha): 0 (Herbicidal ratio of 5% or lower (almost no effect)); c: corn, effect grade on crop (corn; 320 g/ha): 3 (Herbicidal ratio of 40% or higher and lower than 70%)
3 | CON=C(C)CC1CC(O)=C(c2c(C)cc(C)cc2C)C1=O (stereo not drawn) [1-002, 3-hydroxy-2-mesityl-5-{2-(methoxyimino)propyl}cyclopent-2-enone] | – | 5 (Herbicidal ratio of 90% or more (almost completely withered)) | – | 3 (Herbicidal ratio of 40% or higher and lower than 70%) | – | 5 (Herbicidal ratio of 90% or more (almost completely withered)) | 5 (Herbicidal ratio of 90% or more (almost completely withered)) | 5 (Herbicidal ratio of 90% or more (almost completely withered)) | – | 3 (Herbicidal ratio of 40% or higher and lower than 70%) | 5 (Herbicidal ratio of 90% or more (almost completely withered)) | 3 (Herbicidal ratio of 40% or higher and lower than 70%) | 4 (Herbicidal ratio of 70% or higher and lower than 90%) | I: Avena fatua, herbicidal effect grade (Avena fatua [1]): 5 (Herbicidal ratio of 90% or more (almost completely withered)); K: Lolium multiflorum Lam., herbicidal effect grade (Lolium multiflorum Lam.): 5 (Herbicidal ratio of 90% or more (almost completely withered)); M: Abutilon theophrasti, herbicidal effect grade (Abutilon theophrasti [2]): 4 (Herbicidal ratio of 70% or higher and lower than 90%); e: wheat, effect on crop grade (wheat): 5 (Herbicidal ratio of 90% or more (almost completely withered))
